Results published in patent US11453666B2, “Autotaxin inhibitory compounds” (Cancer Research Technology Limited, priority 2015, dated 2022).
pIC50: −log10 of the molar value. Like-named read-outs stand apart in the source and are kept apart here.

Target: human recombinant ATX (Homo sapiens, UniProt Q13822)
Assay: Autotaxin (ATX) activity Quanta Red assay
Assay type: biochemical
Method in brief: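 Recombinant human ATX reaction stopped after 2 h with Quanta Red stop solution; fluorescence read at […]. Controls with DMSO, with and without ATX; IC50 in duplicate.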

[1] = read-out: Activity (ATX activity, Quanta Red assay; IC50)
[2] = Table 3: commercially available compounds tested for Autotaxin activity (Quanta Red assay), read-out: Activity
[3] = human recombinant ATX 0.8 μg/mL, 2 hours at room temperature, IC50 determined in duplicate, read-out: Activity (ATX activity, Quanta Red assay; IC50)
[4] = Table 2: additional compounds tested for ATX activity (Quanta Red Assay), read-out: Activity

Row | SMILES | pIC50 [1] | also measured
1 | C[C@H](NC(=O)CCc1nc2cccnc2n1Cc1ccc(OC(F)(F)F)cc1)[C@H](O)c1ccccc1 [Example 41, N-((1S,2R)-2-Hydroxy-1-methyl-2-phenyl-ethyl)-3-[3-(4-trifluoromethoxy-benzyl)-3H-imidazo[4,5-b]pyridin-2-yl]-propionamide] | 8.00 | 
2 | C[C@H](NC(=O)CCc1nc2cccnc2n1Cc1ccc(OC(F)(F)F)cc1)c1ccc(N[C@H]2CCNC2)cc1 [Example 175, N-{(S)-1-[4-((S)-Pyrrolidin-3-ylamino)-phenyl]-ethyl}-3-[3-(4-trifluoromethoxy-benzyl)-3H-imidazo[4,5-b]pyridin-2-yl]-propionamide] | 8.52 | 
3 | C[C@H](NC(=O)CCc1nc2cccnc2n1Cc1ccc(F)c(F)c1)c1ccc(N2CC[C@@H](O)C2)cc1 [Example 190, 3-[3-(3,4-Difluoro-benzyl)-3H-imidazo[4,5-b]pyridin-2-yl]-N-{(S)-1-[4-((R)-3-hydroxy-pyrrolidin-1-yl)-phenyl]-ethyl}-propionamide] | 7.70 | 
4 | C[C@H](NC(=O)CCc1nc2cccnc2n1Cc1ccc(F)c(F)c1)c1ccccc1 [Example 86, 3-[3-(3,4-Difluoro-benzyl)-3H-imidazo[4,5-b]pyridin-2-yl]-N-((S)-1-phenyl-ethyl)-propionamide] | 8.30 | 
5 | CN(C)c1ccc(CNC(=O)CCc2nc3cccnc3n2Cc2ccc(OC(F)(F)F)cc2)cc1 [Example 31, N-(4-Dimethylamino-benzyl)-3-[3-(4-trifluoromethoxy-benzyl)-3H-imidazo[4,5-b]pyridin-2-yl]-propionamide] | 8.22 | 
6 | COc1ccc(CNC(=O)CCc2nc3cccnc3n2Cc2cccc(OC(F)(F)F)c2)cc1 [Example 98, N-(4-Methoxy-benzyl)-3-[3-(3-trifluoromethoxy-benzyl)-3H-imidazo[4,5-b]pyridin-2-yl]-propionamide] | 7.35 | 
7 | COc1ccc(Cn2c(CCC(=O)NCCc3ccc(C)cc3)nc3cccnc32)cc1 [Example 108, 3-[3-(4-Methoxy-benzyl)-3H-imidazo[4,5-b]pyridin-2-yl]-N-(2-p-tolyl-ethyl)-propionamide] | 6.74 | 
8 | COc1ccc(CNC(=O)CCc2nc3cc(C)cnc3n2Cc2ccc(F)cc2)cc1 [Example 109, 3-[3-(4-Fluoro-benzyl)-6-methyl-3H-imidazo[4,5-b]pyridin-2-yl]-N-(4-methoxy-benzyl)-propionamide] | 6.73 | 
9 | COc1ccc(CNC(=O)CCc2nc3cccnc3n2Cc2ccccc2)cc1 [Example 238, 3-(3-Benzyl-3H-imidazo[4,5-b]pyridin-2-yl)-N-(4-methoxy-benzyl)-propionamide, reference compound] |  | pIC50 [2]: 6.33
10 | C[C@H](NC(=O)NCc1nc2cccnc2n1Cc1ccc(F)cc1)c1ccc(F)cc1 [Example 160, 1-[3-(4-Fluoro-benzyl)-3H-imidazo[4,5-b]pyridin-2-ylmethyl]-3-[(S)-1-(4-fluoro-phenyl)-ethyl]-urea] |  | pIC50 [3]: 7.10
11 | C[C@H](NC(=O)CCc1nc2cccnc2n1Cc1ccc(F)c(F)c1)c1ccc(N2CCCCC2)cc1 [Example 187, 3-[3-(3,4-Difluoro-benzyl)-3H-imidazo[4,5-b]pyridin-2-yl]-N-[(S)-1-(4-piperidin-1-yl-phenyl)-ethyl]-propionamide] | 7.82 | 
12 | COc1ccc(Cn2c(CCC(=O)NCc3ccc4c(c3)OCO4)nc3cccnc32)cc1 [Example 234, N-Benzo[1,3]dioxol-5-ylmethyl-3-[3-(4-methoxy-benzyl)-3H-imidazo[4,5-b]pyridin-2-yl]-propionamide] |  | pIC50 [4]: 6.14
13 | COc1ccc(Cn2c(CCC(=O)N[C@@H](C)c3ccc(C)cc3)nc3cccnc32)cc1 [Example 90, 3-[3-(4-Methoxy-benzyl)-3H-imidazo[4,5-b]pyridin-2-yl]-N-((S)-1-p-tolyl-ethyl)-propionamide] | 8.05 | 
14 | C[C@H](NC(=O)C[S+]([O-])c1nc2cccnc2n1Cc1ccc(OC(F)(F)F)cc1)c1ccc(F)cc1 (single isomer, unassigned) [Example 148] |  | pIC50 [3]: 8.00
15 | COc1ccc(Cn2c(CCC(=O)N(C)Cc3ccc(F)cc3)nc3cccnc32)cc1 [Example 119, N-(4-Fluoro-benzyl)-3-[3-(4-methoxy-benzyl)-3H-imidazo[4,5-b]pyridin-2-yl]-N-methyl-propionamide] | 6.20 | 
16 | C[C@H](NC(=O)CCc1nc2cccnc2n1Cc1ccc(OC(F)(F)F)cc1)c1ccc(F)cc1 [Example 13, N-[(S)-1-(4-Fluoro-phenyl)-ethyl]-3-[3-(4-trifluoromethoxy-benzyl)-3H-imidazo[4,5-b]pyridin-2-yl]-propionamide] | 8.70 | 
17 | C[C@H](NC(=O)CCc1nc2cccnc2n1Cc1ccc(OC(F)(F)F)cc1)c1ccc(N2CCN(C)CC2)cc1 [Example 167, N—{(S)-1-[4-(4-methyl-piperazin-1-yl)-phenyl]-ethyl}-3-[3-(4-trifluoromethoxy-benzyl)-3H-imidazo[4,5-b]pyridin-2-yl]-propionamide] | 9.00 | 

Row | SMILES | pIC50 [1] | also measured
18 | COc1ccc(CNC(=O)CCc2nc3cccnc3n2Cc2ccc(F)c(F)c2)cc1 [Example 100, 3-[3-(3,4-Difluoro-benzyl)-3H-imidazo[4,5-b]pyridin-2-yl]-N-(4-methoxy-benzyl)-propionamide] | 7.30 | 
19 | O=C(CCc1nc2cccnc2n1Cc1ccccc1)NCc1cccc(Cl)c1 [Example 232, 3-(3-Benzyl-3H-imidazo[4,5-b]pyridin-2-yl)-N-(3-chloro-benzyl)-propionamide] |  | pIC50 [4]: 6.22
20 | O=C(CCc1nc2cccnc2n1Cc1ccc(OC(F)(F)F)cc1)N[C@H]1CCc2ccccc21 [Example 25, N-(S)-Indan-1-yl-3-[3-(4-trifluoromethoxy-benzyl)-3H-imidazo[4,5-b]pyridin-2-yl]-propionamide] | 8.40 | 
21 | COc1ccc(Cn2c(CCC(=O)NCCc3ccccc3)nc3cccnc32)cc1 [Example 237, 3-[3-(4-Methoxy-benzyl)-3H-imidazo[4,5-b]pyridin-2-yl]-N-phenethyl-propionamide, reference compound] |  | pIC50 [2]: 6.64
22 | COc1ccc(CCNC(=O)CCc2nc3cccnc3n2Cc2ccc(OC)cc2)cc1 [Example 116, 3-[3-(4-Methoxy-benzyl)-3H-imidazo[4,5-b]pyridin-2-yl]-N-[2-(4-methoxy-phenyl)-ethyl]-propionamide] | 6.11 | 
23 | CC(C)(C)OC(=O)N1CCC[C@@H](CNC(=O)CCc2nc3cccnc3n2Cc2ccc(OC(F)(F)F)cc2)C1 [Example 54, (S)-3-({3-[3-(4-Trifluoromethoxy-benzyl)-3H-imidazo[4,5-b]pyridin-2-yl]-propionylamino}-methyl)-piperidine-1-carboxylic acid tert-butyl ester] | 7.40 | 
24 | COc1ccc([C@H](C)NC(=O)NCc2nc3cccnc3n2Cc2ccc(F)cc2)cc1 [Example 159, 1-[3-(4-Fluoro-benzyl)-3H-imidazo[4,5-b]pyridin-2-ylmethyl]-3-[(S)-1-(4-methoxy-phenyl)-ethyl]-urea] | 7.38 | 
25 | O=C(CCc1nc2cccnc2n1Cc1ccc(OC(F)(F)F)cc1)N[C@@H](Cc1ccccc1)C(=O)O [Example 199, (S)-3-Phenyl-2-{3-[3-(4-trifluoromethoxy-benzyl)-3H-imidazo[4,5-b]pyridin-2-yl]-propionylamino}-propionic acid] | 7.15 | 
26 | COc1ccc(CNC(=O)CCc2nc3cccnc3n2Cc2ccc(F)cc2)cc1 [Example 97, 3-[3-(4-Fluoro-benzyl)-3H-imidazo[4,5-b]pyridin-2-yl]-N-(4-methoxy-benzyl)-propionamide] | 7.40 | 
27 | C[C@H](NC(=O)CCc1nc2ccncc2n1Cc1ccc(OC(F)(F)F)cc1)c1ccc(F)cc1 [Example 124, N-[(S)-1-(4-Fluoro-phenyl)-ethyl]-3-[3-(4-trifluoromethoxy-benzyl)-3H-imidazo[4,5-c]pyridin-2-yl]-propionamide] |  | pIC50 [3]: 8.10
28 | O=C(CSc1nc2cccnc2n1Cc1ccc(F)cc1)N[C@@H](CO)c1ccccc1 [Example 143, 2-[3-(4-Fluoro-benzyl)-3H-imidazo[4,5-b]pyridin-2-ylsulfanyl]-N-((R)-2-hydroxy-1-phenyl-ethyl)-acetamide] | 9.00 | 
29 | C[C@H](NC(=O)CCc1nc2cccnc2n1Cc1cccs1)c1ccc(Cl)cc1 [Example 44, N-[(S)-1-(4-Chloro-phenyl)-ethyl]-3-(3-thiophen-2-ylmethyl-3H-imidazo[4,5-b]pyridin-2-yl)-propionamide] | 7.92 | 
30 | O=C(CCc1nc2cccnc2n1Cc1ccc(OC(F)(F)F)cc1)NC(CO)c1ccc(OC(F)(F)F)cc1 (stereo not drawn) [Example 20, N-[2-Hydroxy-1-(4-trifluoromethoxy-phenyl)-ethyl]-3-[3-(4-trifluoromethoxy-benzyl)-3H-imidazo[4,5-b]pyridin-2-yl]-propionamide] | 8.52 | 
31 | C[C@H](NC(=O)CCc1cc2cccnc2n1Cc1ccc(Cl)cc1)c1ccc(F)cc1 [Example 138, 3-[1-(4-Chloro-benzyl)-1H-pyrrolo[2,3-b]pyridin-2-yl]-N-[(S)-1-(4-fluoro-phenyl)-ethyl]-propionamide] | 8.00 | 
32 | O=C(CCc1nc2cccnc2n1Cc1ccc(OC(F)(F)F)cc1)N[C@H](Cc1ccccc1)C(=O)O [Example 195, (R)-3-Phenyl-2-{3-[3-(4-trifluoromethoxy-benzyl)-3H-imidazo[4,5-b]pyridin-2-yl]-propionylamino}-propionic acid] | 9.00 | 
33 | Cc1cnc2c(c1)nc(CCC(=O)N[C@@H](C)c1ccc(N[C@H]3CCNC3)cc1)n2Cc1ccc(OC(F)(F)F)cc1 [Example 189, 3-[6-Methyl-3-(4-trifluoromethoxy-benzyl)-3H-imidazo[4,5-b]pyridin-2-yl]-N-{(S)-1-[4-((S)-pyrrolidin-3-ylamino)-phenyl]-ethyl}-propionamide] | 7.80 | 
